Source: patent EP3235813A1, “AZA-TETRA-CYCLO DERIVATIVES” (CIDQO 2012, S.L., priority 2016, dated 2017)

Key:
11β-HSD2 = target: T1, 11β-HSD2 (Homo sapiens, UniProt P80365); assay: Determination of 11β-HSD2 inhibition in HEK293 cells stably transfected with the 11β-HSD2 gene (cortisol to cortisone, LC/MS); format: cell-based; details: assay concentrations of 10, 1, 0.1 µM, 2 hours
T1 construct: expressed in transfected cells; host or cells: HEK293 cells, stably transfected
T1 sequence (P80365 1-405): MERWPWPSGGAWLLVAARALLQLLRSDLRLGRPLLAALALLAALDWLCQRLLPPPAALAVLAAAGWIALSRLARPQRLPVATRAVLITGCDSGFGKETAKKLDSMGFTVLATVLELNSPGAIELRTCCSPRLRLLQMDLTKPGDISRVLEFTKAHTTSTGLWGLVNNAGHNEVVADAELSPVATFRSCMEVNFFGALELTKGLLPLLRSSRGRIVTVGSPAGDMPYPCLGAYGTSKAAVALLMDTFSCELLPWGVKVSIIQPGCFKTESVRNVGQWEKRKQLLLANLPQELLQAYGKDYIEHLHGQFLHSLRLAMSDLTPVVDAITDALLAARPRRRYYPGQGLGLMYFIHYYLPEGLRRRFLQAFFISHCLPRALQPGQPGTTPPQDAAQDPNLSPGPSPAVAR
Protocol: 11β-HSD2 activity was determined in cells that are incubated with substrate (cortisol) and product (cortisone) is determined by LC/MS. Cells are plated at 2 x 10^4 cells/well in a 96-well tissue culture microplate and incubated overnight at @37° C in 5% CO2 95% O2. Compounds to be tested are solubilized in 100% DMSO at 10 mM and serially diluted in water and 10% DMSO to final concentration in 10% DMSO. 10 µl of each test dilution is dispensed into the well of a 96-well microplate (assay concentrations of 10, 1, 0.1 µM). Low and high control wells contain 10 µl of 10% DMSO. A solution of DMEM is prepared containing 1% penicillin, 1% streptomycin and 300 nM […]. Medium is removed from cell assay plate and DMEM solution (100 µl) added to each well. Cells are incubated for 2 hours @37° C in 5% CO2 95% O2. Following incubation medium is removed from each well into 500 µl ethyl acetate mixed by vortex and incubated at room temperature for 5 minutes. A calibration curve of known concentrations of cortisone in assay medium is also set up and added to 500 µl ethyl acetate vortexed and incubated as above. The supernatant is removed to a 96 deep well plate and dried down under liquid nitrogen at 65°C. Each well is solubilised in 100 µl 70:30 H2O:AC and removed to a 96 well v bottomed plate for LC/MS analysis.

11β-HSD1 [1] = target: T2, 11β-HSD1 (Homo sapiens, UniProt P28845); assay: Determination of 11β-HSD1 inhibition in HEK293 cells stably transfected with the 11β-HSD1 gene (cortisone to cortisol, LC/MS); format: cell-based; design: expressed in transfected cells; host or cells: HEK293 cells, stably transfected; details: 10 µM compound, 300 nM cortisone, 2 hours, read-out: HSD1 % inh in cells (10 µM)
T2 sequence (P28845 whole entry): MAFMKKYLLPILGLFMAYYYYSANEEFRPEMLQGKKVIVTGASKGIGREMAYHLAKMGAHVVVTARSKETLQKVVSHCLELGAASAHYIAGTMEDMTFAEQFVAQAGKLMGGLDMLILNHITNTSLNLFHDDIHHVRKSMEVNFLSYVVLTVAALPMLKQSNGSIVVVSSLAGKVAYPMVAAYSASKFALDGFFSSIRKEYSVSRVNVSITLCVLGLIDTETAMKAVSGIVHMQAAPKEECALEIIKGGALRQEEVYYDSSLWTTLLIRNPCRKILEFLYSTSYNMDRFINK
Protocol: 11β-HSD1 activity was determined in cells that are incubated with substrate (cortisone) and product (cortisol) is determined by LC/MS. Cells are plated at 2 x 10^4 cells/well in a 96-well tissue culture microplate and incubated overnight at […] in 5% CO2 95% O2. Compounds to be tested are solubilized in 100% DMSO at 10 mM and serially diluted in water and 10% DMSO to final concentration 100 µM in 10% DMSO. 10 µl of each test dilution is dispensed into the well of a 96-well microplate (assay concentration of 10 µM). Low and high control wells contain 10 µl of 10% DMSO. A solution of DMEM is prepared containing 1% penicillin, 1% streptomycin and 300 nM cortisone. Medium is removed from cell assay plate and DMEM solution (100 µl) added to each well. Cells are incubated for 2 hours […] in 5% CO2 95% O2. Following incubation medium is removed from each well into 500 µl ethyl acetate mixed by vortex and incubated at room temperature for 5 minutes. A calibration curve of known concentrations of cortisol in assay medium is also set up and added to 500 µl ethyl acetate vortexed and incubated as above. The supernatant is removed to a 96 deep well plate and dried down under liquid nitrogen at 65°C. Each well is solubilised in 100 µl 70:30 H2O:ACN and removed to a 96 well v bottomed plate for LC/MS analysis.

11β-HSD1 [2] = target: T2, 11β-HSD1; assay: Determination of the 11β-HSD1 inhibition in Human Liver Microsomes (3H-cortisone to 3H-cortisol conversion, scintillation proximity assay); format: biochemical; design: tissue Celsis In-vitro Technologies; host or cells: mixed sex human liver microsomes; details: mixed sex, 1 mM NADPH, 37°C, 30 minutes, read-out: HSD1 IC50 in HLM
Protocol: 11β-HSD1 activity was determined in mixed sex, Human Liver Microsomes (Celsis In-vitro Technologies) by measuring the conversion of ^3H-cortisone to ^3H-cortisol. Percentage inhibition was determined relative to a no inhibitor control. 5 µg of Human Liver microsomes was pre-incubated at 37°C for 10 minutes with inhibitor (assay concentrations of 1, 0.5, 0.1, 0.05, 0.01, 0.005, 0.001 and 0.0005 µM) and 1 mM NADPH in a final volume of 90 µL Krebs buffer. 10 µL of 200 nM ^3H-cortisone was then added followed by incubation for at 37°C for a further 30 minutes. The assay was terminated by rapid freezing on dry ice. ^3H-cortisone to ^3H-cortisol conversion was determined in 50 µL of the defrosted reaction by capturing liberated ^3H-cortisol on 100 µL 1:8000 dilution anti-cortisol (HyTest Ltd)-coated scintillation proximity assay beads (protein A-coated YSi, GE Healthcare). The percentages of inhibition at every tested concentration were analyzed using a non-linear regression curve fitting (variable slope) by using the software GraphPad Prism 5.0.

SMILES	IC50 (11β-HSD2) [nM]	inhibition at 10 µM (11β-HSD1 [1]) [%]	IC50 (11β-HSD1 [2]) [nM]
O=C(C1CCCCC1)N1CC2[C@@H](C1)[C@H]1C=C[C@@H]2[C@@H]2C[C@H]12 (stereo partly drawn) [Example 1, cyclohexyl((4R,4aR,5aS,6S,6aS)-3,3a,4,4a,5,5a,6,6a-octahydro-4,6-etheno-cyclopropa[f]isoindol-2(1H)-yl)methanone]	≥ 1000	100	< 50
CC(C)(C)C(=O)N1CC2[C@@H](C1)[C@H]1C=C[C@@H]2[C@@H]2C[C@H]12 (stereo partly drawn) [Example 7, 2,2-dimethyl-1-((4R,4aR,5aS,6S,6aS)-3,3a,4,4a,5,5a,6,6a-octahydro-4,6-ethenocyclopropa[f]isoindol-2(1H)-yl)propan-1-one]	≥ 1000	85	500 to 1000
N#Cc1ccc(N2CCN(c3ccc(C(=O)N4CC5[C@@H](C4)[C@H]4C=C[C@@H]5[C@@H]5C[C@H]45)cn3)CC2)cc1 (stereo partly drawn) [Example 15, 4-(4-(5-((4R,4aR,5aS,6S,6aS)-1,2,3,3a,4,4a,5,5a,6,6a-decahydro-4,6-ethenocyclopropa[f]isoindole-2-carbonyl)pyridin-2-yl)piperazin-1-yl)benzonitrile]	≥ 1000	100	50 to 500
O=C(C1CC=CCC1)N1CC2[C@@H](C1)[C@H]1C=C[C@@H]2[C@@H]2C[C@H]12 (stereo partly drawn) [Example 10, cyclohex-3-en-1-yl((4R,4aR,5aS,6S,6aS)-3,3a,4,4a,5,5a,6,6a-octahydro-4,6-ethenocyclopropa[f]isoindol-2(1H)-yl)methanone]	100 to 1000	41	< 50

Results, then the compound that gave them:

IC50 (11β-HSD2) [nM]	inhibition at 10 µM (11β-HSD1 [1]) [%]	IC50 (11β-HSD1 [2]) [nM]	SMILES
< 100	100	< 50	O=C(C1CCCCC1)N1CC2C3CCC(C4CC34)C2C1 [Example 2, cyclohexyl((4R,4aR,5aS,6S,6aS)-octahydro-4,6-ethanocyclopropa[f]iso-indol-2(1H)-yl)methanone]
100 to 1000	77	< 50	Nc1c(Cl)cc(C(=O)N2CC3[C@@H](C2)[C@H]2C=C[C@@H]3[C@@H]3C[C@H]23)cc1Cl (stereo partly drawn) [Example 9, (4-amino-3,5-dichlorophenyl)((4R,4aR,5aS,6S,6aS)-3,3a,4,4a,5,5a,6,6a-octahydro-4,6-ethenocyclopropa[f]isoindol-2(1H)-yl)methanone]
